Some test systems named below: A498 renal; A549 NSCLC; ACHN renal; BT-549 breast; CCRF-CEM leukemia; DU-145 prostate; EKVX NSCLC; HCC-2998 colon; IGROV1 ovarian; MDA-MB-435; NCI-H23 lung; NCI/ADR-RES ovarian; OVCAR-4 ovarian; OVCAR-5 ovarian; PC-3 prostate; SF-295 CNS; SF-539 CNS; SK-MEL-28 melanoma; SW-620 colon; UACC-257 melanoma.
Common to all, as to assay: DTP human tumour cell line panel, 48 h

Experimental findings from PubChem BioAssay (NCI) are described below.

Several values for one entry are separate records, joined by “and”; a condition that tells them apart may be missing. Identical values can stand only once.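 Step 1: Grow cells in 96-well plates. Step 2: Expose to compound for 48 hours at 5 concentrations. Step 3: Interpolate endpoints linearly; if unreached, use highest concentration. TGI: total growth inhibition.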

Broadly, the TGI is the concentration giving total growth inhibition. Consider `COc1cc(C2SCC(=O)N2c2ccc(NC(C)=O)cc2)cc(OC)c1OC` (stereo not given), for which the TGI in the test on A498 renal, in the test with A549 NSCLC, in the test with ACHN renal, in the test on BT-549 breast, with CCRF-CEM leukemia and in the test with DU-145 prostate was over 100 µM throughout. Also, the TGI with EKVX NSCLC, in the test with HCC-2998 colon, in the test on IGROV1 ovarian, in the test on MDA-MB-435, with NCI-H23 lung and with NCI/ADR-RES ovarian was over 100 µM throughout. Moreover, the TGI in the test with OVCAR-4 ovarian, in the test with OVCAR-5 ovarian, with PC-3 prostate, in the test with SF-295 CNS, with SF-539 CNS and with SK-MEL-28 melanoma was over 100 µM each time. The TGI with SW-620 colon and with UACC-257 melanoma was over 100 µM in each case.

Take `CN1N=C(c2ccccc2)C(C(c2ccccc2[N+](=O)[O-])C2C(=O)N(C)N=C2c2ccccc2)C1=O` (stereo not given): the TGI was over 100 µM in the test with A498 renal; over 100 µM with A549 NSCLC; over 100 µM with ACHN renal; over 100 µM in the test with BT-549 breast; 60.1 µM with CCRF-CEM leukemia; over 100 µM in the test on DU-145 prostate. The total growth inhibition concentration (TGI) is over 100 µM with EKVX NSCLC; over 100 µM with HCC-2998 colon; over 31.6 µM in the test on IGROV1 ovarian; over 100 µM in the test with MDA-MB-435; over 100 µM in the test with NCI-H23 lung; over 100 µM in the test with NCI/ADR-RES ovarian. For the same molecule, the TGI in the test with OVCAR-4 ovarian, with OVCAR-5 ovarian, in the test on PC-3 prostate, with SF-295 CNS, in the test on SF-539 CNS and in the test on SK-MEL-28 melanoma was over 100 µM in each case. Also, the concentration for total growth inhibition (TGI) in the test on SW-620 colon and in the test on UACC-257 melanoma was over 100 µM in each case.

Take `CCCCC(/C=C\COC1CCCCO1)=C/C(=O)OCC` (stereo not given): the concentration for total growth inhibition (TGI) with A498 renal, in the test on A549 NSCLC, in the test on ACHN renal, in the test with BT-549 breast, in the test with CCRF-CEM leukemia and in the test with DU-145 prostate was over 100 µM throughout. For the same molecule, the TGI in the test with EKVX NSCLC, in the test on HCC-2998 colon, with IGROV1 ovarian, in the test on MDA-MB-435, with NCI-H23 lung and in the test with NCI/ADR-RES ovarian was over 100 µM throughout. Also, the TGI in the test with OVCAR-4 ovarian, in the test with OVCAR-5 ovarian, with PC-3 prostate, with SF-295 CNS, with SF-539 CNS and with SK-MEL-28 melanoma was over 100 µM in each case. Also, the TGI in the test with SW-620 colon and with UACC-257 melanoma was over 100 µM in each case.

Consider `CC1OC(OC2C(OC(=O)[C@]34CCC(C)(C)C[C@H]3C3=CC[C@@H]5[C@@]6(C)CC[C@H](OC7OC(CO)C(O)C(O)C7OC7OC(CO)C(O)C(O)C7O)C(C)(C)[C@@H]6CC[C@@]5(C)[C@]3(C)CC4)OCC(O)C2O)C(O)C(O)C1OC1OCC(O)C(OC2OCC(O)C(O)C2O)C1O` (stereo not given in full), for which the TGI in the test on A498 renal was 4.44 µM and 3.95 µM; with A549 NSCLC, 10.2 µM and 9.72 µM; in the test on ACHN renal it was 15.4 µM and 18.3 µM; in the test with BT-549 breast, 10.8 µM; with CCRF-CEM leukemia it was 30 µM and 31.6 µM; in the test with DU-145 prostate, 19.2 µM and 20.8 µM. Besides, the TGI in the test with EKVX NSCLC was 8.6 µM and 7.32 µM; in the test on HCC-2998 colon it was 3.75 µM and 3.4 µM; in the test with IGROV1 ovarian, 26.4 µM and 24.3 µM; with MDA-MB-435, 3.59 µM and 3.22 µM; in the test with NCI-H23 lung, 8.52 µM and 6.54 µM; with NCI/ADR-RES ovarian, 18.1 µM and 16.2 µM. Besides, the TGI was 19.2 µM and 21.6 µM in the test on OVCAR-4 ovarian; 16.7 µM and 16 µM in the test with OVCAR-5 ovarian; 17.8 µM and 19.1 µM in the test on PC-3 prostate; 13.1 µM and 10.7 µM in the test with SF-295 CNS; 42.7 µM and > 100 µM in the test with SF-539 CNS; 3.9 µM and 3.82 µM in the test on SK-MEL-28 melanoma. Further, the total growth inhibition concentration (TGI) with SW-620 colon is 25.3 µM and 23.6 µM; in the test with UACC-257 melanoma, 6.02 µM and 5.36 µM.

In the case of `Cc1cc(S(=O)(=O)Nc2n[nH]c(Nc3ccc4ccccc4c3)n2)c(S)cc1Cl`, the TGI in the test on A498 renal, in the test on A549 NSCLC, with ACHN renal, in the test on BT-549 breast, in the test on CCRF-CEM leukemia and with DU-145 prostate was over 100 µM each time. Besides, the TGI with EKVX NSCLC is over 100 µM; in the test on HCC-2998 colon, over 100 µM; with IGROV1 ovarian, over 100 µM; in the test with MDA-MB-435 it was 84.2 µM; with NCI-H23 lung it was over 100 µM; in the test with NCI/ADR-RES ovarian it was over 100 µM. Besides, the TGI with OVCAR-4 ovarian was over 100 µM; with OVCAR-5 ovarian, over 100 µM; in the test on PC-3 prostate it was over 100 µM; with SF-295 CNS, 76.9 µM; in the test with SF-539 CNS it was 35.1 µM; in the test with SK-MEL-28 melanoma it was over 100 µM. The TGI in the test with SW-620 colon and with UACC-257 melanoma was over 100 µM in each case.

Consider `N/C(=N\N=C\c1cc(I)cc(I)c1O)NO`, for which the TGI in the test with A498 renal was over 100 µM; in the test with A549 NSCLC it was over 100 µM; in the test with ACHN renal, 74.1 µM; in the test with BT-549 breast it was over 100 µM; in the test on CCRF-CEM leukemia, 52.4 µM; with DU-145 prostate, over 100 µM. Moreover, the TGI was over 100 µM in the test on EKVX NSCLC; over 100 µM in the test with HCC-2998 colon; over 100 µM with IGROV1 ovarian; over 100 µM in the test on MDA-MB-435; 79.3 µM in the test with NCI-H23 lung; 8.41 µM in the test on NCI/ADR-RES ovarian. In addition, the TGI in the test with OVCAR-4 ovarian is over 100 µM; with OVCAR-5 ovarian, over 100 µM; with PC-3 prostate, over 100 µM; in the test with SF-295 CNS it was over 100 µM; in the test on SF-539 CNS it was 75.6 µM; in the test with SK-MEL-28 melanoma, over 100 µM. Besides, the TGI in the test on SW-620 colon and with UACC-257 melanoma was over 100 µM each time.

Turning to `N#Cc1ncn(CCO)c1N`, the TGI in the test on A498 renal, in the test on A549 NSCLC, with ACHN renal, in the test with BT-549 breast, in the test on CCRF-CEM leukemia and in the test on DU-145 prostate was over 100 µM each time. Also, the TGI in the test with EKVX NSCLC, with HCC-2998 colon, in the test with IGROV1 ovarian, in the test on MDA-MB-435, in the test on NCI-H23 lung and with NCI/ADR-RES ovarian was over 100 µM throughout. Moreover, the TGI in the test with OVCAR-4 ovarian, in the test with OVCAR-5 ovarian, in the test on PC-3 prostate, in the test on SF-295 CNS, in the test with SF-539 CNS and in the test with SK-MEL-28 melanoma was over 100 µM each time. Besides, the TGI in the test on SW-620 colon and in the test on UACC-257 melanoma was over 100 µM in each case.
